# Assay results published in patent US6713266B1 (Isodiagnostika Inc., priority 1998, dated 2004).
# Where “and” joins values, the source holds several entries; their conditions need not be identical. Identical values can stand only once.
# Experiments:
# MoAb CSA-2G9 = assay: Inhibition ELISA to the CSA-DVS-HSA conjugate, MoAb; type: binding, mouse; settings: for Percent Inhibition: CSA-2G9, Table 24, CSA, CSG and CSA derivative inhibitors
# Description: (§1) Inhibition ELISA Protocol:
# (§2) 1. Use Falcon Pro-bind immunoplates.
# (§3) 2. Dilute coating antigen to 1 μg/mL in carbonate-bicarbonate buffer. Add 100 μL per well and incubate overnight at 4° C.
# (§4) 3. On the same day prepare inhibiting antigen tubes. Aliquot antibodies into glass test tubes. Prepare appropriate antigen concentration in ethanol and add to aliquoted antibody at 10 μL ethanol solution/250 μL antibody. Vortex tubes and incubate overnight at 4° C.
# (§5) 4. Shake out wells and wash 3× with 200 μL PBS/0.05% TWEEN™ (polyoxyethylene-sorbitol) (v/v) per well.
# (§6) 5. Add 200 μL blocking buffer per well (PBS/2% BSA (w/v)). Incubate 60 min at room temperature.
# (§7) 7. Transfer contents of inhibition tubes to antigen-coated plate, 100 μL per well. Incubate 60 min at 37° C.
# (§8) 9. Dilute alkaline phosphatase conjugated anti-mouse IgG (Pierce cat#31322) in PBS/0.1% TWEEN™ (polyoxyethylene-sorbitol) (v/v) to 1:5000 concentration. Add 100 μL per well and incubate at 37° C. for 60 min.
# (§9) 11. […] Add 100 μL per well and incubate in the dark at room temperature. Absorbance can be read at 405 nm at approximately 15-min intervals.
# MoAb CSA-1H6 = assay: as above; type: binding, mouse; settings: for Percent Inhibition: CSA-1H6, Table 24, CSA, CSG and CSA derivative inhibitors
# Description: as §1, §2, §3, §4, §5, §6, §7, §8, §9
# MoAb AM1-2E10 = assay: as above; type: binding, mouse; settings: for Percent Inhibition: AM1-2E10, Table 24, CSA, CSG and CSA derivative inhibitors
# Description: as §1, §2, §3, §4, §5, §6, §7
# (§10) 9. […] Add 100 μL per well and incubate at 37° C. for 60 min.
# as §9
# MoAb AM1-7F5 = assay: as above; type: binding, mouse; settings: for Percent Inhibition: AM1-7F5, Table 24, CSA, CSG and CSA derivative inhibitors
# Description: as §1, §2, §3, §4, §5, §6, §7, §10, §9
# MoAb AM19-1-7E12-2 = assay: Inhibition ELISA with AM19-1-DVS (1) coated ELISA plates, MoAb; type: binding, mouse; settings: AM19-1-7F12-2
# Description: as §1, §2, §3, §4, §5, §6, §7, §10, §9
# MoAb AM19-1-7E12-1 = assay: as above; type: binding, mouse; settings: AM19-1-7E12-1 TCS
# Description: as §1, §2, §3, §4, §5, §6, §7, §10, §9
# [1] = system: Mouse polyclonal sera (AM1-DVS-KLH immunogen); assay: Inhibition ELISA to the CSA-DVS-HSA conjugate, mouse polyclonal sera; type: binding
# Description: as §1, §2, §3, §4, §5, §6, §7, §10, §9
# [2] = system: Mouse polyclonal sera (CSA-DVS-KLH immunogen); assay: Inhibition ELISA, CSA-DVS-HSA coated plate, mouse polyclonal sera; type: binding; settings: Mouse sera; Table 3; inhibition ELISA to the CSA-DVS-HSA conjugate
# Description: as §1, §2, §3, §4, §5, §6, §7, §10, §9
# [3] = system: Mouse polyclonal sera (AM19-1-DVS (1) - KLH immunogen); assay: Inhibition ELISA, AM19-1-DVS (1) HSA coated plate, mouse polyclonal sera; type: binding
# Description: as §1, §2, §3, §4, §5, §6, §7, §10, §9
# [4] = system: Mouse polyclonal sera (AM9-9-DVS-KLH immunogen); assay: Inhibition ELISA, AM19-9-DVS-HSA coated plate, mouse polyclonal sera; type: binding
# Description: as §1, §2, §3, §4, §5, §6, §7, §10, §9
# [5] = system: Mouse polyclonal sera (AM19-1-DVS (2) - KLH immunogen); assay: Inhibition ELISA, AM19-1-DVS (2) HSA coated plate, mouse polyclonal sera; type: binding
# Description: as §1, §2, §3, §4, §5, §6, §7, §10, §9
# [6] = system: Mouse polyclonal sera (AM19-9-DVS-KLH immunogen); assay: Inhibition ELISA, AM19-9-DVS-HSA coated plates, mouse polyclonal sera; type: binding
# Description: as §1, §2, §3, §4, §5, §6, §7, §10, §9
# [7] = system: Rabbit polyclonal sera (AM19-1-DVS-KLH (1) immunogen); assay: Inhibition ELISA, AM19-1-DVS (1) HSA coated plate, rabbit polyclonal sera; type: binding
# Description: as §1, §2, §3, §4, §5, §6, §7, §10, §9
# The AM19-1-DVS (1) conjugate was also used to immunize rabbits.
smiles,measurement,setting,value
"C/C=C/C[C@@H](C)[C@@H](O)[C@H]1C(=O)N[C@@H](CCC)C(=O)N(C)CC(=O)N(C)[C@@H](CC(C)C)C(=O)N[C@@H](C(C)C)C(=O)N(C)[C@@H](CC(C)C)C(=O)N[C@@H](C)C(=O)N[C@H](C)C(=O)N(C)[C@@H](CC(C)C)C(=O)N(C)[C@@H](CC(C)C)C(=O)N(C)[C@@H](C(C)C)C(=O)N1C [CSG, cyclosporine G]",Percent Inhibition,MoAb CSA-2G9,89.8%
same,Percent Inhibition,MoAb CSA-1H6,88.6%
same,Percent Inhibition,MoAb AM1-2E10,61% and 61.2%
same,Percent Inhibition,MoAb AM1-7F5,28.8%
C=CCC1C=C(C)CC(C)CC(OC)C2OC(O)(C(=O)C(=O)N3CCCCC3C(=O)OC(C(C)=CC3CCC(O)C(OC)C3)C(C)C(O)CC1=NO)C(C)CC2OC (centres unmarked) [III],Percent Inhibition,MoAb CSA-2G9,21.9%
same,Percent Inhibition,MoAb CSA-1H6,5.5%
same,Percent Inhibition,MoAb AM1-2E10,17.8%
same,Percent Inhibition,MoAb AM1-7F5,16.6%
"C=CC[C@@H]1/C=C(\C)C[C@H](C)C[C@H](OC)[C@H]2O[C@@](O)(C(=O)C(=O)N3CCCC[C@H]3C(=O)O[C@H](/C(C)=C/[C@@H]3CC[C@@H](O)[C@H](OC)C3)[C@H](C)[C@@H](O)CC1=O)[C@H](C)C[C@@H]2OC [FK, tacrolimus]",Percent Inhibition of TCS,"MoAb CSA-2G9; CSA-2G9 TCS, Table 16, CSA-DVS-HSA conjugate",10.8%
same,Percent Inhibition of TCS,"MoAb CSA-1H6; CSA-1H6 TCS, Table 16, CSA-DVS-HSA conjugate",0%
same,Percent Inhibition of TCS,"MoAb AM1-2E10; AM1-2E10 TCS, Table 18, CSA-DVS-HSA coated plate",0%
same,Percent Inhibition of TCS,"MoAb AM1-7F5; AM1-7F51, TCS, Table 18, CSA-DVS-HSA coated plate",26.0%
same,Percent Inhibition of TCS,MoAb AM19-1-7E12-2,3.2%
same,Percent Inhibition of TCS,MoAb AM19-1-7E12-1,6.3%
same,Percent Inhibition,[1]; Mouse 1,3.5%
same,Percent Inhibition,[1]; Mouse 2,13.0%
same,Percent Inhibition,[2],31.9%
same,Percent Inhibition,[3]; Mouse 1,0%
same,Percent Inhibition,[3]; Mouse 2,0%
same,Percent Inhibition,[4]; Mouse 1,24.2%
same,Percent Inhibition,[4]; Mouse 2,34.5%
same,Percent Inhibition,[5]; Mouse 3,0%
same,Percent Inhibition,[5]; Mouse 4,0%
same,Percent Inhibition,[6]; Mouse 5,0%
same,Percent Inhibition,[6]; Mouse 6,0%
same,Percent Inhibition,[7],0%
